Earlier results as cited in patent US6676966B1, “Extended release metformin hydrochloride formulations” (Intellipharmaceutics Corp., priority 2000, dated 2004).
Where a name gives a salt, the structure may show the parent alone.

Conditions: single 850 mg immediate release tablet with food vs same tablet without food

## CN(C)C(=N)N=C(N)N [metformin, Metformin hydrochloride]
  lower AUC in plasma with food: 25%
  lower peak concentration in plasma with food: ~40%
  prolongation of time to peak plasma concentration with food: 35 min
